The text below walks through data of ChEMBL document CHEMBL4371076 (J Med Chem, 2019).

Data set [1] is described as follows: Unbound plasma concentration in CD1 mouse model of chronic constriction injury-induced cold allodynia at 3 mg/kg, ip dosed at 5 weeks post surgery and measured 60 mins post dose. Particulars: in vivo, 1 h. The format is ADME, organism-based.
The test system of data set [2] is Mus musculus. Nature of the data set: Analgesic activity in CD1 mouse model of formalin-induced nociception assessed as reduction in formalin-evoked paw flinching/licking response during second phase at 30 mg/kg, ip pretreated for 30 mins followed by formalin treatment and measured during 15 to 45 mins post formalin injection. The format is functional, organism-based.

A short description of data set [3]: Toxicity in CD1 mouse model of formalin-induced nociception assessed as prostration or sedation at 30 mg/kg, ip. The format is organism-based. As to conditions: in vivo.
The subject of data set [4] is Mus musculus. Nature of the data set: Effect on thermal response latency in contralateral paw in CD1 mouse model of CFA-induced thermal hyperalgesia at 30 mg/kg, ip administered 72 hrs post CFA challenge and measured at 60 mins post dose by Hargreave's test. In kind it is organism-based. Particulars: in vivo, 1 h.
Data set [5] concerns the target Sodium channel protein type 4 subunit alpha (Homo sapiens, UniProt P35499). As to the kind of experiment: Inhibition of human Nav1.4 expressed in HEK293 cells after 600 secs at -60 mV holding potential by ion works barracuda population patch clamp method. In kind it is cell-based. Background: The patch-clamp technique gives a direct electrical read-out from membranes.

Data set [6] can be described thus: Toxicity in CD1 mouse model of formalin-induced nociception assessed as hypothermia at 30 mg/kg, ip. As to conditions: in vivo. In kind it is organism-based.
The target in data set [7] is Sodium channel protein type 3 subunit alpha (Homo sapiens, UniProt Q9NY46). Nature of the data set: Inhibition of human Nav1.3 expressed in HEK293 cells after 600 secs at -60 mV holding potential by ion works barracuda population patch clamp method. In kind it is cell-based.
Data set [8] in a line: Unbound plasma concentration in CD1 mouse model of formalin-induced nociception at 30 mg/kg, ip. In kind it is ADME, organism-based. As to conditions: in vivo.
A short description of data set [9]: Plasma concentration in CD1 mouse model of formalin-induced nociception at 30 mg/kg, po. The format is ADME, organism-based. As to conditions: read-out: Cp, in vivo.
The nature of data set [10]: Fraction unbound in rat DRG neurons. The format is ADME.
The nature of data set [11]: Toxicity in CD1 mouse model of formalin-induced nociception assessed as prostration or sedation at 30 mg/kg, po. In kind it is organism-based. As to conditions: in vivo.
Data set [12] deals with Mus musculus. Nature of the data set: Analgesic activity in CD1 mouse model of formalin-induced nociception assessed as reduction in formalin-evoked paw flinching/licking response during second phase at 30 mg/kg, po pretreated for 30 mins followed by formalin treatment and measured during 15 to 45 mins post formalin injection. The format is functional, organism-based.

Active and inactive are the calls of the source. The rule behind the calls is not given here.

Chain of Sodium channel protein type 4 subunit alpha (P35499 whole entry): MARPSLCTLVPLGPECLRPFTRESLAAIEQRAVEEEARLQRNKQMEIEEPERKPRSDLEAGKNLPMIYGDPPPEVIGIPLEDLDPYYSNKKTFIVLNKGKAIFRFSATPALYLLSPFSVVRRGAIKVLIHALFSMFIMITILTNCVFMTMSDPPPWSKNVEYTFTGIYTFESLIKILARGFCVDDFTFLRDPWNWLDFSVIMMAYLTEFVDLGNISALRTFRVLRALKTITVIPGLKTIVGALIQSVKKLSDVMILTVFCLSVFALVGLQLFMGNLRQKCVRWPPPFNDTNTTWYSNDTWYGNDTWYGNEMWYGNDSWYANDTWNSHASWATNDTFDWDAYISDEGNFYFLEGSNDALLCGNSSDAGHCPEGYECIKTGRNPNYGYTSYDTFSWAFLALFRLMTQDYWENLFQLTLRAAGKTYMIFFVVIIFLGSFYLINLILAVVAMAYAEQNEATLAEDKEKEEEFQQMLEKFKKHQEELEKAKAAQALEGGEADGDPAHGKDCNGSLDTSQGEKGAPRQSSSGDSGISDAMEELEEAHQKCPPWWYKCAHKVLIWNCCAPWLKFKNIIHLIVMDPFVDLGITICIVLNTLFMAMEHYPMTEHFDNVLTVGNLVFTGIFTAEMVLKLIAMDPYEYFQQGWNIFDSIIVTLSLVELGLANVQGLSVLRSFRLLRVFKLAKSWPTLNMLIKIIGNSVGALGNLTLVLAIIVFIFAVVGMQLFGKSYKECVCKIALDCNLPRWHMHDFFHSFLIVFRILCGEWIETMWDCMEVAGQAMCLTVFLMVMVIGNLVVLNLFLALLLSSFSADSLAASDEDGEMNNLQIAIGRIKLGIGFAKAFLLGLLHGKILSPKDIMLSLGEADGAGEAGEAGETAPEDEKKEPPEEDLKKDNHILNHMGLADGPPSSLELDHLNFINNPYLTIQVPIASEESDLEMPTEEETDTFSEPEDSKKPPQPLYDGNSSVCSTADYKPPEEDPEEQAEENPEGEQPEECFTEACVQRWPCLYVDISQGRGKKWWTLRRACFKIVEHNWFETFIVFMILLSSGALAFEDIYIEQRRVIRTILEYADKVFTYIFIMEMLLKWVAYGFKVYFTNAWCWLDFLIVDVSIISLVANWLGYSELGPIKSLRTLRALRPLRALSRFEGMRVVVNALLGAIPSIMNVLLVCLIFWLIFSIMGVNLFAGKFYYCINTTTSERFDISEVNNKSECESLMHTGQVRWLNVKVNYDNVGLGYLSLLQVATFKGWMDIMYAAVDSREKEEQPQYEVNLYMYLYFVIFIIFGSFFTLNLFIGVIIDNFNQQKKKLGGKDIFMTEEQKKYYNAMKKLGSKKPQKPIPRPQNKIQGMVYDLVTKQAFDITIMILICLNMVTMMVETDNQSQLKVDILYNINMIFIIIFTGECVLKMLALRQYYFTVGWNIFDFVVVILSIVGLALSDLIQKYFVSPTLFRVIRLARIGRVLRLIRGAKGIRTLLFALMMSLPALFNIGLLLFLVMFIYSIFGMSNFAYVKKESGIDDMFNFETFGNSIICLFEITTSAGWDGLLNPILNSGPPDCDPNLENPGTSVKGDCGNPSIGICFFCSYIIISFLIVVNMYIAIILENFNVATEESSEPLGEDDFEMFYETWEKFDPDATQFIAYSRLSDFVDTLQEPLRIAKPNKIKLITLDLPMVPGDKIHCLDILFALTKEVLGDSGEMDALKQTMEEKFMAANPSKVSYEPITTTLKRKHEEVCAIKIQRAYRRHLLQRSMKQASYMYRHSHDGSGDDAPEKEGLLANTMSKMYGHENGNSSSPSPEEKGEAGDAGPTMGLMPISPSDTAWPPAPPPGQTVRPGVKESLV
Chain of Sodium channel protein type 3 subunit alpha (Q9NY46 whole entry): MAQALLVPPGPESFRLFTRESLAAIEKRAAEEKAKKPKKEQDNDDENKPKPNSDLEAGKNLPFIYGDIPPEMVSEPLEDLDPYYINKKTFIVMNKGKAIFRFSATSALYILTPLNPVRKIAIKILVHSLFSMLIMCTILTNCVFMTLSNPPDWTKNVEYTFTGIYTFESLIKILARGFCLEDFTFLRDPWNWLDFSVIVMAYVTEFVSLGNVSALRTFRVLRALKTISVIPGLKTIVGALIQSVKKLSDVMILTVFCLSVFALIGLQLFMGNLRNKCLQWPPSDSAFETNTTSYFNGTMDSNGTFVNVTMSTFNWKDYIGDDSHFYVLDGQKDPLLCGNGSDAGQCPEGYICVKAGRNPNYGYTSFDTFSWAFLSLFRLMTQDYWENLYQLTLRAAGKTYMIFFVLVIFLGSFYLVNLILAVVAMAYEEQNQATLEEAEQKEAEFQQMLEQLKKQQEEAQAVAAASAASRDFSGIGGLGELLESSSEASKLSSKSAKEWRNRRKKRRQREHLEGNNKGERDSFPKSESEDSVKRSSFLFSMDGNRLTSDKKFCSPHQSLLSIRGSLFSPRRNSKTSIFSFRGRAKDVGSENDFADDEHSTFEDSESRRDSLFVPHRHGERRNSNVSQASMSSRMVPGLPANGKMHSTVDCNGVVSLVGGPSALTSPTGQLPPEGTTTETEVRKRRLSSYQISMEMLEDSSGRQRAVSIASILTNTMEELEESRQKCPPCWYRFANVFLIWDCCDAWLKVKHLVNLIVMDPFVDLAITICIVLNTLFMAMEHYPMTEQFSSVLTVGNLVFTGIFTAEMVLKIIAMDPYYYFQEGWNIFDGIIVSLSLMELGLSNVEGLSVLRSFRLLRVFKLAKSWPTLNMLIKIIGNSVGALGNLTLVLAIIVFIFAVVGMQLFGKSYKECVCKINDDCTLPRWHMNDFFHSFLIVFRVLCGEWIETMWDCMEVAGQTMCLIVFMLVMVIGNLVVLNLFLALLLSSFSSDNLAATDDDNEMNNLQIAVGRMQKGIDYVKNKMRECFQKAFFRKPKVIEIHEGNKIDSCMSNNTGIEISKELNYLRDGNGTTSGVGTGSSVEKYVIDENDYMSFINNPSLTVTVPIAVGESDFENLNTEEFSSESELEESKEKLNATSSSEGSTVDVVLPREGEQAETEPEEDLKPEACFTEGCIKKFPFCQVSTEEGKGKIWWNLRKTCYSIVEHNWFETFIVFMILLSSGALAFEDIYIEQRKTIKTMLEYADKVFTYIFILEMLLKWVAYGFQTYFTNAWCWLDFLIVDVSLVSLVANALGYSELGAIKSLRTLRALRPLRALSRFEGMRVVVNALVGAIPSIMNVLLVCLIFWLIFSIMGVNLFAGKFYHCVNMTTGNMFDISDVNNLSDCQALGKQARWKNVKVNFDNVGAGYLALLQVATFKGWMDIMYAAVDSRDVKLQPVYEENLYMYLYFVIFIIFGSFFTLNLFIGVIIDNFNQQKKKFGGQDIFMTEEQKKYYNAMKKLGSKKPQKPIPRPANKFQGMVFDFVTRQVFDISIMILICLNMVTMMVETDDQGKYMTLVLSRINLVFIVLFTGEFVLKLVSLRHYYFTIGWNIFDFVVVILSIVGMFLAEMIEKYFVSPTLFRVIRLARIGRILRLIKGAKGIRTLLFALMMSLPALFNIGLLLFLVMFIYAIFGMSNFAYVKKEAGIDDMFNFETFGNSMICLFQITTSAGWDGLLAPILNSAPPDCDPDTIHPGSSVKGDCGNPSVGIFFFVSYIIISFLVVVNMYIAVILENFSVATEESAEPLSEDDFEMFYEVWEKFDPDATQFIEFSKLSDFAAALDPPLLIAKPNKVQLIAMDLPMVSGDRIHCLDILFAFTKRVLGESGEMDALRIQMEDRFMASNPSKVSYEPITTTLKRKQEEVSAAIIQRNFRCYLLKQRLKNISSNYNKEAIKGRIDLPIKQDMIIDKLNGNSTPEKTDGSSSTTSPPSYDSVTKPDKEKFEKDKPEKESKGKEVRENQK

For `CC(C)COc1ncc(-c2cn(C)c3cc(C(=O)NS(C)(=O)=O)ccc23)cc1Cl`, the “Cp(f)” value was found to be 0.0066 µM in [1] and 0.118 µM in data set [8]. Also, the outcome in the data set on Mus musculus [2] was Active. Also, the Activity result (in data set [3]; with Mus musculus [4]; in data set [6]) was “Non-Toxic” throughout. The IC50 (usually the concentration at which inhibition is half-maximal) in data set [5] was 4.8 µM; in data set [7], more than 30 µM.

For the compound `CC(C)COc1ccc(-c2cn(C)c3cc(C(=O)NS(C)(=O)=O)c(F)cc23)cn1`, the concentration in data set [9] is 44 µM. Besides, in data set [10], the fraction unbound (as a rule, free concentration divided by total concentration) came out at 0.039. In addition, in [11], the Activity result is listed as “Non-Toxic”. Further, the outcome in the data set with Mus musculus [12] was inactive.
